Laboratory results from patent publication US3981999A, “Fish disease treatment” (Dainippon Pharmaceutical Co., Ltd., priority 1973, dated 1976).
Where two headings read alike, the source gives them in different places.

How the values were obtained:
[1] = tested on: Aeromonas liquefacieus Y-62; assay: Oral effect against Aeromonas infection in goldfish; type: in vivo
Experimental: Goldfish each weighing about 6 - 7 g were given a fish food containing each of the test compounds. After 30 minutes, the fish were infected intramuscularly with Aeromonas liquefacieus Y-62 (about 10^7 germs/fish) under ether anesthesia. […] In the same manner, the control group was given the same fish food without the test compound.

[2] = tested on: Aeromonas salmonicida Hara-1; assay: MIC by broth serial dilution; type: cell-based
Experimental: (§1) The MIC (minimum inhibitory concentration) of a test compound was determined by the serial dilution method on various pathogenic microorganisms incubated under the following experimental conditions. The lowest concentration at which the visible growth of the organism was inhibited was considered as MIC. […]
(§2) the broth-dilution method bouillon, pH 7.2, except for Vibrio (3% NaCl-bouillon, pH 7.2), Pasteurella (2% NaCl-Brain Heart Infusion, pH 7.3 and Chondrococcus (TY medium, pH 7.3) 1 drop of a bacterial suspension per test tube (100 - 1000 minimal growing units in the medium) 25°C, except for Pseud. anguilliseptica (20°C)
(§3) 48 hours, except for Pseudo. anguilliseptica ([…])

[3] = tested on: Pseudomonas anguilliseptica S-1; assay: MIC by broth serial dilution; type: cell-based
Experimental: as §1, §2, §3

Chondrococcus sp K-2 = assay: MIC by broth serial dilution; type: cell-based
Experimental: as §1, §2, §3

Vibrio anguillarum K-3 = assay: MIC by broth serial dilution; type: cell-based
Experimental: as §1, §2, §3

[4] = tested on: Pasteurella piscicida K-1; assay: MIC by broth serial dilution; type: cell-based; settings: Photobacterium damselae
Experimental: as §1, §2, §3

Vibrio anguillarum Km-30 = assay: MIC by broth serial dilution; type: cell-based
Experimental: as §1, §2, §3

Chondrococcus sp K-1 = assay: MIC by broth serial dilution; type: cell-based
Experimental: as §1, §2, §3

[5] = tested on: Aeromonas salmonicida Kusuda; assay: MIC by broth serial dilution; type: cell-based
Experimental: as §1, §2, §3

[6] = tested on: Aeromonas salmonicida Kawazu; assay: MIC by broth serial dilution; type: cell-based
Experimental: as §1, §2, §3

[7] = tested on: Aeromonas salmonicida Hara-2; assay: MIC by broth serial dilution; type: cell-based
Experimental: as §1, §2, §3

[8] = tested on: Aeromonas liquefaciens Y-62; assay: MIC by broth serial dilution; type: cell-based; settings: Aeromonas hydrophila
Experimental: as §1, §2, §3

[9] = tested on: Pasteurella piscicida Al-3; assay: MIC by broth serial dilution; type: cell-based; settings: Photobacterium damselae
Experimental: as §1, §2, §3

Vibrio anguillarum A-8 = assay: MIC by broth serial dilution; type: cell-based
Experimental: as §1, §2, §3

[10] = tested on: Pseudomonas anguilliseptica T-2; assay: MIC by broth serial dilution; type: cell-based
Experimental: as §1, §2, §3

goldfish = assay: Oral toxicity in goldfish; type: in vivo; settings: 10% in diet (PA 800, AT-1493 955, AT-1557 935, AT-1475 923 mg/kg); for Mortality: 7 days; for Number of the survival after 1 day from administration / Number of the survival after 2 days from administration / Number of the survival after 3 days from administration / Number of the survival after 4 days from administration / Number of the survival after 5 days from administration / Number of the survival after 6 days from administration / Number of the survival after 7 days from administration: day 0: 5 fish
Experimental: A diet containing 10% of each of the test compounds was given orally to groups each consisting of 5 goldfish each weighing 6 to 10 g, and observation was made for the following 7 days. The temperature of the water was maintained at 28°C.

[11] = 0.1% in diet (PA 6.1, AT-1493 7.5, AT-1557 7.6, AT-1475 7.5 mg/kg), 5 days
[12] = 0.1% in diet (PA 6.1, AT-1493 7.5, AT-1557 7.6, AT-1475 7.5 mg/kg), day 0: PA 10, others 5 fish
[13] = 0.3% in diet, 22.3 mg/kg, day 0: 5 fish
[14] = HARA1, bouillon pH 7.2, 25°C, 48 hours, read-out: MIC
[15] = S1, bouillon pH 7.2, 20°C, 7 hours, read-out: MIC
[16] = TY medium pH 7.3, 25°C, 48 hours, read-out: MIC
[17] = K3, 3% NaCl-bouillon pH 7.2, 25°C, 48 hours, read-out: MIC
[18] = K1, 2% NaCl-Brain Heart Infusion pH 7.3, 25°C, 48 hours, read-out: MIC
[19] = KM30, 3% NaCl-bouillon pH 7.2, 25°C, 48 hours, read-out: MIC
[20] = bouillon pH 7.2, 25°C, 48 hours, read-out: MIC
[21] = HARA2, bouillon pH 7.2, 25°C, 48 hours, read-out: MIC
[22] = Y62, bouillon pH 7.2, 25°C, 48 hours, read-out: MIC
[23] = AL3, 2% NaCl-Brain Heart Infusion pH 7.3, 25°C, 48 hours, read-out: MIC
[24] = A8, 3% NaCl-bouillon pH 7.2, 25°C, 48 hours, read-out: MIC
[25] = T2, bouillon pH 7.2, 20°C, 7 hours, read-out: MIC
[26] = 0.03% in diet (PA 2.5, AT-1493 2.5, AT-1557 2.2 mg/kg), 5 days
[27] = 0.03% in diet (PA 2.5, AT-1493 2.5, AT-1557 2.2 mg/kg), day 0: PA 10, others 5 fish
[28] = 1% in diet, 80.4 mg/kg, day 0: 5 fish
[29] = 3% in diet, 253.1 mg/kg, day 0: 5 fish

C=Cn1cc(C(=O)O)c(=O)c2ccc(N3CCNCC3)nc21 [AT-1475, 1,4-Dihydro-7-(1-piperazinyl)-4-oxo-1-vinyl-1,8-naphthyridine-3-carboxylicacid]
0%: Mortality (goldfish)
4: Number of surviving fish after 2 days [1, 12] | Number of surviving fish after 3 days [1, 12]
1 µg/mL: MIC (Chondrococcus sp K-2; [16]) | MIC [4, 18] | MIC (Chondrococcus sp K-1; [16]) | MIC [7, 21] | MIC [9, 23]
0.3 µg/mL: MIC [2, 14] | MIC [5, 20] | MIC [6, 20] | MIC [8, 22]
100%: Percent survival ([1]; 0.3% in diet, 22.3 mg/kg, 5 days)
10 µg/mL: MIC (Vibrio anguillarum Km-30; [19]) | MIC (Vibrio anguillarum A-8; [24])
0.1 µg/mL: MIC [3, 15] | MIC [10, 25]
3 µg/mL: MIC (Vibrio anguillarum K-3; [17])
5: Number of surviving fish after 1 day [1, 12] | Number of surviving fish after 1 day [1, 13] | Number of surviving fish after 2 days [1, 13] | Number of surviving fish after 3 days [1, 13] | Number of surviving fish after 4 days [1, 13] | Number of surviving fish after 5 days [1, 13] | Number of the survival after 1 day from administration (goldfish) | Number of the survival after 2 days from administration (goldfish) | Number of the survival after 3 days from administration (goldfish) | Number of the survival after 4 days from administration (goldfish) | Number of the survival after 5 days from administration (goldfish) | Number of the survival after 6 days from administration (goldfish) | Number of the survival after 7 days from administration (goldfish)
3: Number of surviving fish after 4 days [1, 12] | Number of surviving fish after 5 days [1, 12]
60%: Percent survival [1, 11]

C=Cn1cc(C(=O)O)c(=O)c2ccc(N3CCN(C)CC3)cc21 [AT-1493, 1,4-Dihydro-7-(4-methyl-1-piperazinyl)-4-oxo-1-vinylquinoline-3-carboxylicacid]
0.3 µg/mL: MIC [4, 18]
0.1 µg/mL: MIC [2, 14] | MIC [3, 15] | MIC [5, 20] | MIC [6, 20] | MIC [7, 21] | MIC [8, 22] | MIC [10, 25]
3 µg/mL: MIC (Chondrococcus sp K-2; [16]) | MIC (Vibrio anguillarum K-3; [17]) | MIC (Vibrio anguillarum Km-30; [19]) | MIC (Chondrococcus sp K-1; [16]) | MIC (Vibrio anguillarum A-8; [24])
1 µg/mL: MIC [9, 23]
5: Number of surviving fish after 1 day [1, 27] | Number of surviving fish after 2 days [1, 27] | Number of surviving fish after 3 days [1, 27] | Number of surviving fish after 4 days [1, 27] | Number of surviving fish after 5 days [1, 27] | Number of surviving fish after 1 day [1, 12] | Number of surviving fish after 2 days [1, 12] | Number of surviving fish after 3 days [1, 12] | Number of surviving fish after 4 days [1, 12] | Number of surviving fish after 5 days [1, 12] | Number of the survival after 1 day from administration (goldfish) | Number of the survival after 2 days from administration (goldfish) | Number of the survival after 3 days from administration (goldfish) | Number of the survival after 4 days from administration (goldfish) | Number of the survival after 5 days from administration (goldfish) | Number of the survival after 6 days from administration (goldfish) | Number of the survival after 7 days from administration (goldfish)
0%: Mortality (goldfish)
100%: Percent survival [1, 26] | Percent survival [1, 11]

C=Cn1cc(C(=O)O)c(=O)c2ccc(N3CCN(CC)CC3)cc21 [AT-1557, 1,4-Dihydro-7-(4-ethyl-1-piperazinyl)-4-oxo-1-vinylquinoline-3-carboxylic acid]
80%: Percent survival [1, 26]
1 µg/mL: MIC (Chondrococcus sp K-2; [16]) | MIC [4, 18] | MIC (Chondrococcus sp K-1; [16]) | MIC [9, 23]
4: Number of surviving fish after 2 days [1, 27] | Number of surviving fish after 3 days [1, 27] | Number of surviving fish after 4 days [1, 27] | Number of surviving fish after 5 days [1, 27]
0.3 µg/mL: MIC [2, 14] | MIC [5, 20] | MIC [7, 21] | MIC [8, 22]
0%: Mortality (goldfish)
0.1 µg/mL: MIC [3, 15] | MIC [6, 20] | MIC [10, 25]
10 µg/mL: MIC (Vibrio anguillarum K-3; [17]) | MIC (Vibrio anguillarum Km-30; [19])
3 µg/mL: MIC (Vibrio anguillarum A-8; [24])
100%: Percent survival [1, 11]
5: Number of surviving fish after 1 day [1, 27] | Number of surviving fish after 1 day [1, 12] | Number of surviving fish after 2 days [1, 12] | Number of surviving fish after 3 days [1, 12] | Number of surviving fish after 4 days [1, 12] | Number of surviving fish after 5 days [1, 12] | Number of the survival after 1 day from administration (goldfish) | Number of the survival after 2 days from administration (goldfish) | Number of the survival after 3 days from administration (goldfish) | Number of the survival after 4 days from administration (goldfish) | Number of the survival after 5 days from administration (goldfish) | Number of the survival after 6 days from administration (goldfish) | Number of the survival after 7 days from administration (goldfish)

CN(C)C1C(=O)C(C(N)=O)=C(O)C2(O)C(=O)C3=C(O)c4c(O)cccc4C(C)(O)C3CC12 (centres unmarked) [Tetracycline, tetracycline, reference compound]
0%: Percent survival ([1]; 1% in diet, 80.4 mg/kg) | Percent survival ([1]; 3% in diet, 253.1 mg/kg)
0.3 µg/mL: MIC ([2]; HARA1, 48 h, pH 7.2) | MIC ([3]; S1, 7 h, pH 7.2) | MIC ([4]; K1, 48 h, pH 7.3) | MIC (Vibrio anguillarum Km-30; KM30, 48 h, pH 7.2) | MIC ([5]; 48 h, pH 7.2) | MIC ([9]; AL3, 48 h, pH 7.3) | MIC ([10]; T2, 7 h, pH 7.2)
1: Number of surviving fish after 2 days [1, 29]
0: Number of surviving fish after 2 days [1, 28] | Number of surviving fish after 3 days [1, 28] | Number of surviving fish after 3 days [1, 29]
3: Number of surviving fish after 1 day [1, 28]
1 µg/mL: MIC (Chondrococcus sp K-2; 48 h, pH 7.3) | MIC (Vibrio anguillarum K-3; K3, 48 h, pH 7.2) | MIC (Chondrococcus sp K-1; 48 h, pH 7.3) | MIC ([6]; 48 h, pH 7.2) | MIC ([8]; Y62, 48 h, pH 7.2) | MIC (Vibrio anguillarum A-8; A8, 48 h, pH 7.2)
0.1 µg/mL: MIC ([7]; HARA2, 48 h, pH 7.2)
zero: Percent survival ([1]; diet concentration of as high as more than 0.1% as well as as low as 0.1%)
5: Number of surviving fish after 1 day [1, 29]
